# Measured values published in patent US12038377B2, “Devices, compositions and methods for imaging with Raman scattering” (THE TRUSTEES OF COLUMBIA UNIVERSITY IN THE CITY OF NEW YORK, priority 2013, dated 2024).
# Counter-ions that a name gives are not always drawn. Starred links: 1 amine or outer side, 2 acyl side, 3 side chain; linkers in the order of their positions; H or OH if unused. Positions of bridges follow the written chain, without caps; N, C: chain ends. Non-standard residues stand in square brackets, D forms with d. Residues, ends and D or L forms follow the SMILES beside them. Chains are numbered I, II in the order given. *: point of attachment. Actinocin(9to1) = Cc1c2oc3c(C)ccc(C(=O)[*:1])c3nc-2c(C(=O)[*:2])c(N)c1=O; NMeV = CN[C@H](C(=O)O)C(C)C; Cbz = O=C(OCc1ccccc1)*; Sar = CNCC(=O)O
# Key:
# [1] = system: hippocampal neuronal cultures; assay: Pulse-chase imaging of proteome turnover in hippocampal neuronal cultures under proteasomal stress; format: cell-based
# Protocol: Regular Medium of D12 hippocampal neuronal cultures was replaced by methionine-deficient medium containing 1 mM L-Homopropargylglycine (e.g., HPG, C10186, Invitrogen) for 12 h. The medium was then exchanged to fresh methionine-deficient medium containing 1 mM AHA with or without 10 μM MG132 (e.g., M7449 SIGMA) for another 10 h. Cells were fixed with 4% PFA for 20 min, permeabilized with 0.5% Triton for 15 min. The immuno-staining procedures were the same as described above. Then 1.25 μM MARS2228-azide with Click-iT® Cell Reaction Buffer was added to cells/slices to react with HPG for 20 min. After washing with PBS, 4 μM Alexa 647-alkyne with Click-iT® Cell Reaction Buffer was added to react with AHA for 20 min. Cells were washed with PBS before imaging.
# 6 technical replicates of 8-colour images were acquired from 3 independent neuronal co-cultures (e.g., the same condition as described above for FIGS. 48d1-48d5) for statistical presentation. […] Cross-checking 8-colour staining, the percentages of astrocytes with aggregations (e.g., the number of astrocytes with aggregations divided by the total number of astrocytes) and the percentages of neurons with aggregations (e.g., the number of neurons with aggregations divided by the total number of neurons) were calculated for each image sets. […]
# [2] = system: RNA synthesis in HeLa cells; assay: SRS imaging of EU incorporation (RNA transcription), control with RNA synthesis inhibitor; format: cell-based; conditions: 200 nM actinomycin D, 2 mM EU, live HeLa cells
# Excerpt: Next, we studied RNA transcription and turnover using the alkyne-tagged uridine analogue, 5-ethynyl uridine (EU)8 in Hela cells (e.g. FIG. 12a).
# HeLa cells [3] = assay: Alkyne-D-glucose uptake and competition in live HeLa cells (SRS); format: cell-based
# [4] = system: protein synthesis in HeLa cells; assay: Protein synthesis inhibition in HeLa cells incubated with deuterium-labeled all amino acids (C-D signal); format: cell-based; conditions: 5 μM anisomycin
# Protocol: FIGS. 34a-34i is a set of exemplary images based on SRS imaging of time-dependent de novo protein synthesis and drug-induced protein synthesis inhibition effect in live HeLa cells incubated in deuterium-labeled all amino acid medium. […] As a control, the amide I (1655 cm^−1) signal remains at a steady state over time (5 hrs—FIG. 34d, 12 hrs—FIG. 34e, 20 hrs—FIG. 34f). FIGS. 34g-34i illustrate ratio images between the SRS image at 2133 cm^−1 (newly synthesized proteins) and the SRS image at 1655 cm^−1 (the amide I band from total proteins), representing the relative new protein fraction with subcellular resolution at each time point (5 hrs—FIG. 34g, 12 hrs—FIG. 34h, 20 hrs—FIG. 34i). The bar represents the ratio ranging from low to high.
# The effect of protein synthesis inhibition by chemical drugs can be further tested to validate that the detected C-D signal indeed derives from nascent proteins. […] (See, e.g., FIG. 34k). […] Thus, the detected C-D SRS signal (e.g., FIGS. 34a-34c) can originate from deuterium-labeled nascent proteins, which can vanish upon adding the protein synthesis inhibitor.
# [5] = system: DNA synthesis in HeLa cells; assay: SRS imaging of EdU incorporation during de novo DNA synthesis, control with DNA synthesis inhibitor; format: cell-based; conditions: 10 mM hydroxyurea, 100 μM EdU, live HeLa cells
# HeLa cells [6] = conditions: 2 mM methionine competing with 2 mM Hpg, live HeLa cells
# Protocol: FIG. 12f illustrates live Hela cells incubated with 2 mM Hpg alone (alkyne-on) and with 2 mM methionine (Control). […] For FIG. 12b, FIG. 12d, and FIG. 12f, alkyne-off and amide images display the same set of cells as the alkyne-on images; lipid images capture the same cells as control images.
# Sample preparation for SRS imaging of live cells and organisms. For all SRS imaging experiments of HeLa cells (e.g. FIGS. 12a-12j), cells were first Seeded on coverslips with a density of 1×10^5/mL in petri dishes with 2 mL DMEM culture medium for 20 h at 37° C. and 5% CO2. • 1) EdU experiment, DMEM culture medium was then changed to DMEM medium (FBS-free) for 24 h for cell cycle synchronization. After synchronization, medium was replaced back to DMEM culture medium and EdU (10 mM stock in PBS) was simultaneously added to a concentration of 100 μM for 15 h. • 2) EU experiment, EU (100 mM stock in PBS) was added to the DMEM culture medium directly to a concentration of 2 mM for 7 h. • 3) Hpg experiment, DMEM culture medium was then changed to methionine-deficient culture medium for 1 h, followed by supplying 2 mM Hpg (200 mM stock in PBS) in the medium for 24 h. • 4) Propargylcholine and EdU dual-color experiment, DMEM culture medium was changed to DMEM medium (FBS-free) for synchronization. […]
# mouse ear tissue = assay: SRS imaging of drug delivery into mouse ear tissue
# Excerpt: Sample preparation for drug delivery into mouse ear tissues. […] The amide (1655 cm^−1) and lipid (2845 cm^−1) images have been applied with linear spectral unmixing to eliminate cross talk before composition.
# FIG. 17a depicts Raman spectra of a drug cream, Lamisil, containing 1% TH and mouse ear skin tissue. FIGS. 17b-17e illustrate SRS imaging of tissue layers from stratum corneum (z=4 μm) to viable epidermis (z=24 μm), sebaceous gland (z=48 μm) and subcutaneous fat (z=88 μm). To facilitate tissue penetration, DMSO solution containing 1% TH was applied onto the ears of an anesthetized live mouse for 30 min and the dissected ears are imaged afterwards. […] The composite images show protein (1655 cm^−1) and lipid (2845 cm^−1) distributions.
# FIGS. 18a and 18b show SRS imaging of the viable epidermis layer (z=20 μm) and the sebaceous gland layer (z=40 μm). […] The composite images show both protein (1655 cm^−1) and lipid (2845 cm^−1) distributions.
smiles,measurement,setting,value
CC(C)C[C@@H](C=O)NC(=O)[C@H](CC(C)C)NC(=O)[C@H](CC(C)C)NC(=O)OCc1ccccc1 [MG132] (Cbz-Leu-Leu-Leu-aldehyde),cell type with proteome inclusions,"[1]; 10 μM MG132, neuronal co-cultures, n=6",proteome inclusions appeared mostly in astrocytes instead of neurons
same,proteome turnover,"[1]; 10 μM MG132 in the chase period, 10 h",retarded the proteome turnover
"Cc1c2oc3c(C)ccc(C(=O)N[C@@H]4C(=O)N[C@H](C(C)C)C(=O)N5CCC[C@H]5C(=O)N(C)CC(=O)N(C)[C@@H](C(C)C)C(=O)O[C@@H]4C)c3nc-2c(C(=O)N[C@@H]2C(=O)N[C@H](C(C)C)C(=O)N3CCC[C@H]3C(=O)N(C)CC(=O)N(C)[C@@H](C(C)C)C(=O)O[C@@H]2C)c(N)c1=O [actinomycin D] (I: T[dV]P[Sar][NMeV] / II: T[dV]P[Sar][NMeV]; ester I:1-I:C, II:1-II:C; linker I:N-II:N via Actinocin(9to1))",EU alkyne-on signal (newly synthesized RNA),[2],nearly disappears
C#CCOC1C(O)C(O)OC(CO)C1O [alkyne-D-glucose],glucose signal inside cells (uptake),"HeLa cells [3]; 32 mM, live HeLa cells, 10 min to 4 h",increasing over time
same,alkyne-D-glucose signal under competition with regular D-glucose,"HeLa cells [3]; D-glucose 10 mM, 50 mM and 100 mM",decreases
same,alkyne-D-glucose signal under competition with L-glucose,HeLa cells [3]; L-glucose,retained
COc1ccc(C[C@H]2NC[C@H](O)[C@H]2OC(C)=O)cc1 [anisomycin],C-D signal in the spontaneous Raman spectrum (2133 cm−1),"[4]; HeLa cells, deuterium-labeled all amino acids",absence of the C-D signal
same,C-D SRS imaging signal of newly synthesized proteins,[4]; compared with no inhibitor,drastically weaker signal
same,total proteome signal (2940 cm−1 image),[4]; versus non-drug treated counterpart,remains at a similar level
NC(=O)NO [hydroxyurea],EdU signal (newly synthesized DNA),[5],No EdU signal shows up
"CSCC[C@H](N)C(=O)O [methionine, L-methionine]",Hpg signal (newly synthesized proteins),HeLa cells [6],causes the signal to disappear
CN(C/C=C/C#CC(C)(C)C)Cc1cccc2ccccc12 [terbinafine hydrochloride],tissue penetration pathway,"mouse ear tissue; 1% TH in DMSO, mouse ear, 30 min",penetrates into tissues through the lipid phase
same,depth of drug delivery imaged inside mouse ear tissue,"mouse ear tissue; internal alkyne at 2230 cm−1, 1% TH applied 30 min",about 100 μm
